Here are results for 2 compounds from patent publication US5652226A (priority 1995, dated 1997).

What all share (format): cell-based
Test [1] has as its system various strains of streptococci and enterococci resistant to vancomycin. The experiment in a line: microbe, parasite or virus in culture. The conditions noted are these: read-out: MICs.
Test [2] has as its system methicillin-resistant staphylococci. The experiment in a line: microbe, parasite or virus in culture.
The test system of test [3] is methicillin-susceptible staphylococci. Put plainly: microbe, parasite or virus in culture.
The subject of test [4] is Enterococcus faecalis. Put plainly: microbe, parasite or virus in culture.
For test [5], the system named is Borrelia burgdorferi. The experiment in a line: microbe, parasite or virus in culture. The note with it: Borreliella burgdorferi, read-out: MICs.
In test [6] the test system is Legionella pneumophila and L. Longbeachea. Put plainly: microbe, parasite or virus in culture. The note with it: read-out: MICs.
For test [7], the system named is gram negative bacteria. Put plainly: microbe, parasite or virus in culture. The note with it: read-out: GMM.
Test [8] deals with Trichiomonas vaginalis. The experiment in a line: microbe, parasite or virus in culture. The conditions noted are these: read-out: MICs.
The subject of test [9] is Mycoplasma. Put plainly: microbe, parasite or virus in culture. The note with it: read-out: MICs.
The subject of test [10] is gram positive and gram negative bacteria.

≈ marks a conversion by molar mass, not a printed value.

Take `CN[C@H](CC(C)C)C(=O)N[C@H]1C(=O)N[C@@H](CC(N)=O)C(=O)N[C@H]2C(=O)N[C@H]3C(=O)N[C@H](C(=O)N[C@H](C(=O)O)c4cc(O)cc(O)c4-c4cc3ccc4O)[C@H](O)c3ccc(c(Cl)c3)Oc3cc2cc(c3O[C@@H]2O[C@H](CO)[C@@H](O)[C@H](O)[C@H]2O[C@H]2C[C@](C)(N)[C@H](O)[C@H](C)O2)Oc2ccc(cc2Cl)[C@H]1O` [vancomycin]: in test [1], the MIC is at least 128 µg/mL.

Turning to `COC[C@H]1O[C@@H](O[C@@H]2OC[C@@H]3O[C@@]4(OC[C@@H](OC(=O)c5c(C)cc(O)cc5O)[C@@H]5OCO[C@H]54)O[C@H]3[C@H]2O)[C@@H](OC)[C@@H](O)[C@@H]1O[C@@H]1O[C@H](C)[C@H](OC)[C@H](O[C@@H]2O[C@H](C)[C@H]3O[C@]4(C[C@@H](O)[C@H](O[C@H]5C[C@@H](O[C@H]6C[C@](C)([N+](=O)[O-])[C@@H](OC)[C@H](C)O6)[C@H](OC(=O)c6c(C)c(Cl)c(O)c(Cl)c6OC)[C@@H](C)O5)[C@@H](C)O4)O[C@]3(C)[C@@H]2O)[C@H]1O` [Everninomicin, everninomicin], the “potency relative to vancomycin” value in test [2] (more potent than vancomycin, methicillin-resistant staphylococci) is given as 10 fold; in test [3] it was 10 fold; in [4] it was 2 fold. Further, the MIC was 0.1 µg/mL (≈ 0.0613 µM) in [2] (read-out: GMM); 0.5 µg/mL (≈ 0.306 µM) in test [3] (read-out: GMM); 0.49 µg/mL (≈ 0.3 µM) in test [4] (Enterococcus faecalis, read-out: GMM); at most 0.5 µg/mL in [1]; at most 0.49 µg/mL in test [5]; at least 2.5 µg/mL in test [6]. Moreover, the results for the MIC in test [7], in [8] and in test [9] were at least 760 µg/mL, at least 192 µg/mL and at least 200 µg/mL, respectively. Besides, in test [10], the “cross resistance with other antibiotics” value is reported as “No cross resistance with other antibiotics was observed”.
